Results: ChEMBL document CHEMBL1201862, “PubChem BioAssay data set” (2004)
Active and inactive are the calls of the source.

Assays:
[1] = Late stage assay provider results from the probe development effort to identify inhibitors of the Plasmodium falciparum M18 Aspartyl Aminopeptidase (M18AAP): radiolabel-based cell-based dose response assay to identify compounds that inhibit P. falciparum growth in RBCs, Set 2..; type: functional
[2] = Late-stage results from the probe development effort to identify antagonists of arginine vasopressin receptor 1a (AVPR1a): fluorescence-based cell-based dose response AVPR1a inhibition assay.; type: functional
Vasopressin V1b receptor = Vasopressin V1b receptor (Homo sapiens, UniProt P47901); assay: Late-stage results from the probe development effort to identify antagonists of arginine vasopressin receptor 1a (AVPR1a): fluorescence-based cell-based dose response AVPR1b inhibition counterscreen assay.; type: functional
Sequence of Vasopressin V1b receptor (P47901 whole entry): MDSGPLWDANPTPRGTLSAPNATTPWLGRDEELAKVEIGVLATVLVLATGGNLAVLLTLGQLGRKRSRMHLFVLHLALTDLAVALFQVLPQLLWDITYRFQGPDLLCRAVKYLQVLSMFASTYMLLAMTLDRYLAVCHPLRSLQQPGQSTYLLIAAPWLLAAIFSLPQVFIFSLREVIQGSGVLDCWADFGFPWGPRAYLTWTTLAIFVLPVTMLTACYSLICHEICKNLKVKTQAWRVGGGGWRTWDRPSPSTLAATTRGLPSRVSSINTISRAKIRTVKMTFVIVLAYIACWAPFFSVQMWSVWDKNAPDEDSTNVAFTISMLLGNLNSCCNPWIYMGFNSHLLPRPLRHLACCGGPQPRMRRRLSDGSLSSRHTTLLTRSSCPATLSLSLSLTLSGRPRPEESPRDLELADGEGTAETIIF

Vasopressin V2 receptor = Vasopressin V2 receptor (Homo sapiens, UniProt P30518); assay: Late-stage results from the probe development effort to identify antagonists of arginine vasopressin receptor 1a (AVPR1a): fluorescence-based cell-based dose response AVPR2 inhibition counterscreen assay.; type: functional
Sequence of Vasopressin V2 receptor (P30518 whole entry): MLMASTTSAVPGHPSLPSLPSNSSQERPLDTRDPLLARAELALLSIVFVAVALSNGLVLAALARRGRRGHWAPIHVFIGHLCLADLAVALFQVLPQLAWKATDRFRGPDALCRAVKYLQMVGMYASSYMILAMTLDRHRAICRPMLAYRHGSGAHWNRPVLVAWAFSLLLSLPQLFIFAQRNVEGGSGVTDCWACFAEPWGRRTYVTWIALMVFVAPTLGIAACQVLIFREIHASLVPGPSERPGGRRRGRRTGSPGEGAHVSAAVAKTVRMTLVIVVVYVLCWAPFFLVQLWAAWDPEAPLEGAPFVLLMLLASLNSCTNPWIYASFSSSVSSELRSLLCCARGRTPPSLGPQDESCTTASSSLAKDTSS

[3] = Late-stage results from the probe development effort to identify antagonists of arginine vasopressin receptor 1a (AVPR1a): fluorescence-based cell-based dose response OXTR inhibition counterscreen assay.; type: functional
[4] = target: C-X-C chemokine receptor type 4 (Homo sapiens, UniProt P61073); assay: SAR analysis of small molecule antagonists of the CXCR6 receptor using a CXCR4 receptor luminescent beta-arrestin counterscreen.; type: functional
Sequence of C-X-C chemokine receptor type 4 (P61073 whole entry): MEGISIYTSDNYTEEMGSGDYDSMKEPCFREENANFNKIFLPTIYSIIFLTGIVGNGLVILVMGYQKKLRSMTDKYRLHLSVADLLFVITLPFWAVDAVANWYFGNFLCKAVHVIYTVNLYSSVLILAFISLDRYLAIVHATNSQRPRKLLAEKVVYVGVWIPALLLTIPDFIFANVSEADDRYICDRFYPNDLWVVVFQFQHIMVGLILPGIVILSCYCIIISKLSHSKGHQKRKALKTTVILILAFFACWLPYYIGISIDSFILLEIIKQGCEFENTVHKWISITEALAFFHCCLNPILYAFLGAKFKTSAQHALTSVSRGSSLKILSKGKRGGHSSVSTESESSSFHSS

[5] = target: T1, C-C chemokine receptor type 6 (Homo sapiens, UniProt P51684); assay: SAR analysis of small molecule antagonists of the CXCR6 receptor using a CCR6 receptor luminescent beta-arrestin counterscreen.; type: functional
T1 sequence (P51684 whole entry): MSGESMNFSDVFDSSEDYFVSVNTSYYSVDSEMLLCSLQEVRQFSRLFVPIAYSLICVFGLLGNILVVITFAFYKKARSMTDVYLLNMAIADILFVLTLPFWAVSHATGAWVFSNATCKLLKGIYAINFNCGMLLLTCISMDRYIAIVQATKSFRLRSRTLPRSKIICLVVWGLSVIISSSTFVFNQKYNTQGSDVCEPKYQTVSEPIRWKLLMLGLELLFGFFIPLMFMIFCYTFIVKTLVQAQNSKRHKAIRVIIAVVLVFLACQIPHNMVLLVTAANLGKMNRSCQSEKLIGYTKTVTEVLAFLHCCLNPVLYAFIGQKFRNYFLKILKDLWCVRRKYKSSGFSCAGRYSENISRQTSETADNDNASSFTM

Transthyretin = Transthyretin (Homo sapiens, UniProt P02766); assay: Luminescence-based cell-based high throughput dose response assay to identify activators of Transthyretin (TTR) transcription.; type: functional
[6] = target: RNA-editing ligase 1, mitochondrial (Trypanosoma brucei brucei, UniProt P86926); assay: inhibition of trypanosome RNA editing ligase – biochemical, fluorescence, Trypanosoma brucei, dose response (AID 1117295); type: functional
Sequence of RNA-editing ligase 1, mitochondrial (P86926 whole entry): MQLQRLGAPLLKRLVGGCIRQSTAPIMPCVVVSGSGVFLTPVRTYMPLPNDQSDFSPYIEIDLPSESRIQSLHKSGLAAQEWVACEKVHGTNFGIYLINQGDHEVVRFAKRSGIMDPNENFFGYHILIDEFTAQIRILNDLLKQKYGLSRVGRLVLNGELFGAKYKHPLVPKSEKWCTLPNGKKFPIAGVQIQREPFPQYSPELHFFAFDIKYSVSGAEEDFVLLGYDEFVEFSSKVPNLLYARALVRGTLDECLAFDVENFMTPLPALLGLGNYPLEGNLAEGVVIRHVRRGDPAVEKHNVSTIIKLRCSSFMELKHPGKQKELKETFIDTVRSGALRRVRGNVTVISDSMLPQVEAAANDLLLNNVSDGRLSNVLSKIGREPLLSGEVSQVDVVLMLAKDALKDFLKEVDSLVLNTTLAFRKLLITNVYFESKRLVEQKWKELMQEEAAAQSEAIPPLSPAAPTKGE

[7] = growth inhibition of yeast DHODH-expressing 3D7 parasites – SYBR Green, dry powder samples, dose response (AID 1159570); type: functional, cell-based;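 further: parasite growth measured after 72 hours of compound exposure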
[8] = toxicity to human HepG2 hepatoma cells – cell-based, plate reader, dry powder samples, cytotoxicity control, dose response (AID 1159569); type: functional;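 further: inhibitor potency with signal falling toward the positive control level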
[9] = P. falciparum Dd2 growth inhibitors, dose response, SYBR Green, cherry-picked samples (AID 1159567); type: functional, cell-based
[10] = antimalarial activity against Dd2 parasites – SYBR Green fluorescence, erythrocytes, dry powder, set 2, dose response (AID 1159574); type: functional, cell-based
[11] = Dd2 malaria parasite growth inhibition potency – SYBR Green, dry powder samples, dose response (AID 1159566); type: functional, cell-based;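 further: potency for growth inhibition with lower SYBR green DNA signal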
[12] = growth inhibition of PfATP4-mutant resistant parasites – NITD609-resistant line, SYBR Green, dry powder, dose response (AID 1159571); type: functional, cell-based;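 further: parasites synchronized at ring stage by sorbitol before testing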
[13] = CellTiter-Glo luminescence survival assay, SW480 colon tumor line, concentration-response curve, half-maximal inhibitory concentration (AID 1117338); type: functional
[14] = RKO cell viability reduction, dose response, CellTiter-Glo luminescence (AID 1117322); type: functional
[15] = cytotoxicity toward HCT116 cells – cell-based, CellTiter-Glo luminescence, IC50, dose response (AID 1117332); type: functional; conditions: HCT-116
[16] = SNU-C1 cell viability reduction, dose response, CellTiter-Glo luminescence (AID 1117323); type: functional, cell-based
[17] = cytotoxicity toward Colo320 cells – cell-based, CellTiter-Glo luminescence, IC50, dose response (AID 1117334); type: functional; conditions: COLO 320
[18] = cytotoxicity toward HT-29 cells – cell-based, CellTiter-Glo luminescence, IC50, dose response (AID 1117330); type: functional
[19] = Reduced DLD-1 viability, concentration-response, CellTiter-Glo luminescence (AID 1117352); type: functional
[20] = HCT116 cell viability decrease, GSK3B pretreatment – CellTiter-Glo, IC50, dose response (AID 1117339); type: functional; conditions: HCT-116

In the case of `Oc1ccc(CCN2CCc3ccccc3C2)cc1O`, the IC50 [1] is reported as 7.9 µM (active).
For `O=C(C1CCN(c2ccccn2)CC1)N(CC1CC1)c1ccc(Cl)cc1`, the IC50 [2] was 28.8 nM (active), the IC50 (Vasopressin V1b receptor) was 18.9 µM (inactive) and the IC50 (Vasopressin V2 receptor) was 28.3 µM (inactive). The IC50 [3] was 9.6 µM (active).
With `COc1cc(C(=O)NC2CC3CCCC(C2)N3CC(=O)Nc2ccc(C)cc2)cc(OC)c1OC` (stereo not drawn) the IC50 [4] was > 79 µM (inactive) and the IC50 [5] was > 79 µM (inactive).
For `Cc1ccc(/C=N/NC(=O)c2csc(C)c2)o1`, the EC50 (Transthyretin) was > 167 µM (inactive).
With `COC(=O)C1=C(C)N(Cc2cccc(C(F)(F)F)c2)C(NCc2cc(OC)c(OC)c(OC)c2)=NC1c1ccccc1C(F)(F)F` (stereo not drawn) the IC50 [6] was > 96.6 µM (inactive).
With `COc1cccc(C#Cc2ccc([C@H]3[C@@H](CO)N4C(=O)CN(C(=O)Cc5ccccc5)C[C@H]34)cc2)c1` the AC50 [7] was 114 nM (active), the AC50 [8] was 21.1 µM (active) and the AC50 [9] was < 300 nM (active). For the same compound, the AC50 [10] was 19.5 nM (active), the AC50 [11] was 30.1 nM (active) and the AC50 [12] was 36.3 nM (active).
For `O=C(Nc1ccc(Br)cc1)c1cc(Br)c(Br)s1` [TIBROFAN], the IC50 [13] was 123 nM (active), the IC50 [14] was 431 nM (active) and the IC50 [15] was 541 nM (active). The IC50 [16] was 1.1 µM (active), the IC50 [17] was 18 nM (active) and the IC50 [18] was 520 nM (active). For the same compound, the IC50 [19] was 335 nM (active) and the IC50 [20] was 342 nM (active).
